We go through four molecules from patent US8044236B2, “Carboxilic acid derivatives” (Institute of Medicinal Molecular Design, Inc., priority 2006, dated 2011).

Experiment [1] has as its system Crlj:CD(SD) rat AV shunt model. Kind of experiment: Test Example 5: anti-thrombotic activity (rat AV shunt model). In kind it is in vivo. The conditions noted are these: oral, 10 mg/kg/day for 4 days, mean ± S.E., vehicle 72.7 ± 2.7, *p < 0.05. The procedure: The administration on the 4th day was carried out about 1 hour before the following perfusion start. Put a 6.5 cm silk thread (Matsuda Ika Kogyou; […] On the connected part where the silk thread is through, parafilm was wrapped around to avoid blood leakage. […] Saline was filled in the above catheter, and both ends of the catheter were inserted in right carotid artery and […], respectively, and blood was circulated. 30 minutes later, the catheter was pinched with forceps to stop blood flow, and tube parts where the silk thread is through were cut and removed. The silk thread was carefully removed from the tubes, remaining wet weight was weighed after removing the liquid phase by filter paper, and further subtraction of the weight of the silk thread, gives the thrombus weight. For the thrombus weight in each group, an average value±standard error (S.E.) was calculated. […] For the test, the SAS System Release 8.2 (TS2M0) for Windows (Registered Trademark) (SAS Institute Inc.) and its coorperative system […] Ver. 7.10 (Arm Systex Co. Ltd.) were employed.

Experiment [2] concerns the target T1, recombinant human PAI-1 (Homo sapiens, UniProt P05121). Kind of experiment: biochemical. The procedure: <Compotion of pH7.4 HEPES Buffer>
(§1) • 0.1 M HEPES • 0.1 M NaCl • […] • 0.1% Polyethylene glycol 8,000 (Hampton Research Corporation) • 2 mM Dimethyldecylphoshine oxide [Apo-10] (Fluka Corporation) [Results]

Another experiment deals with T2, recombinant rat PAI-1 (Rattus norvegicus, UniProt P20961).
T2 sequence (P20961 24-402): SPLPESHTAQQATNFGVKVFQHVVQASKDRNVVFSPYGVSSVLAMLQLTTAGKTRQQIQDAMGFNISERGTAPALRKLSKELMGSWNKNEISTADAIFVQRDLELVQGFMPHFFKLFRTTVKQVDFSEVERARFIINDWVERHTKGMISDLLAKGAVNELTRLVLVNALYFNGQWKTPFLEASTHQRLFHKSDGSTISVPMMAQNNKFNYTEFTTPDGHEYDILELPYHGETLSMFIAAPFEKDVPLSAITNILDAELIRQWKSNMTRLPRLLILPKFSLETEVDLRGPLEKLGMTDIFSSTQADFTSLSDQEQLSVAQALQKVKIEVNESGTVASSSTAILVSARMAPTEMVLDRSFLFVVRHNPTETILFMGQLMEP
Kind of experiment: biochemical. The procedure:
as §1

In experiment [3] the target is T1, recombinant human PAI-1. Kind of experiment: Test Example 1: human PAI-1 inhibitory activity (tPA fluorogenic substrate, pH7.5 Tris buffer). The format is biochemical. Also on record: purchased Molecular Innovations, Inc. The conditions noted are these: pH 7.5, read-out: Inhibition Rate of Human PAI-1 Activity (%).
Procedure: In a 96-well multiplate (black), 1.5 μl of DMSO solution of the present application compound prepared to achieve 80-fold the test concentration (=the final concentration when fluorogenic substrate is added) was diluted with 52.5 μl of pH7.5 Tris buffer. […] Furthermore, 30 μl of 800 IU/ml two-chain tPA (Activity Standard; American diagnostics, inc.) prepared by Tris buffer was added, and the mixed solution was incubated for 15 minutes at room temperature. To this, 30 μl of 400 μM fluorogenic substrate (Pyr-Gly-Arg-MCA; Peptide Institute, Inc.) for tPA prepared by Tris buffer was added and reacted for 30 minutes at room temperature.
<Composition of pH7.5 Tris Buffer)
[4] abbreviates: read-out: Inhibition Rate of Rat PAI-1 Activity (%).

T1 sequence (P05121 24-402): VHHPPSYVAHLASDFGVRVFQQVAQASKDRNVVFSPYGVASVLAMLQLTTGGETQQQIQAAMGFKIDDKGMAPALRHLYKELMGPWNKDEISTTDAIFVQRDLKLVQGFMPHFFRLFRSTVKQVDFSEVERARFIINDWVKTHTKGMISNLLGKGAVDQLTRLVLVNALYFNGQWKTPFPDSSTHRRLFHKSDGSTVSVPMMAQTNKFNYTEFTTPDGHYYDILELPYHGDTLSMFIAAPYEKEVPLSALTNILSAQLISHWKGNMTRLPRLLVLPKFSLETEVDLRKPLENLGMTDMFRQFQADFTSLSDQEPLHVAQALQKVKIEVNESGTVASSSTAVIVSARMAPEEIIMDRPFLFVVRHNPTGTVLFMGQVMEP

On to `CC(C)(C)c1ccc(COc2ccc(-c3ccc(OC(F)(F)F)cc3)cc2CCC(=O)O)cc1` [Compound 5, 3-{4-[4-(tert-butyl)benzyloxy]-4′-(trifluoromethoxy)biphenyl-3-yl}propanoic acid], for which the “Thrombus Weight (mg)” value in experiment [1] is on record as 57.5 ± 5.0* mg. Also, the figures for the IC50 at recombinant human PAI-1 [2] and on recombinant rat PAI-1 were 1270 nM and 2800 nM, respectively.
Turning to `CC(C)(C)c1ccc(COc2ccc(-c3ccc(OC(F)(F)F)cc3)cc2CC(=O)O)cc1` [Compound 9, {4-[4-(tert-butyl)benzyloxy]-4′-(trifluoromethoxy)biphenyl-3-yl}acetic acid], the IC50 at recombinant human PAI-1 [2] is 1300 nM; at recombinant rat PAI-1, 2070 nM.
Regarding `CC(C)(C)c1ccc(Oc2ccc(-c3ccc(OC(F)(F)F)cc3)cc2CCC(=O)O)cc1` [Compound 13, 3-{4-[4-(tert-butyl)phenoxy]-4′-(trifluoromethoxy)biphenyl-3-yl}propanoic acid], the IC50 on recombinant human PAI-1 [2] came to 1170 nM; at recombinant rat PAI-1 it was 2170 nM. At recombinant rat PAI-1 (setting [4]), the inhibition at 10 µM was above 99%.
Take `CC(C)(C)c1ccc(COc2ccc(-c3ccc(OC(F)(F)F)cc3)cc2N(Cc2ccccc2)C(=O)C(=O)O)cc1` [Compound 59, N-benzyl-N-{4-[4-(tert-butyl)benzyloxy]-4′-(trifluoromethoxy)biphenyl-3-yl}oxamic acid]: at recombinant human PAI-1 [2] (pH 7.4, read-out: Inhibition Rate of Human PAI-1 Activity (%)), the inhibition at 3 µM was above 99%. In addition, on recombinant human PAI-1 [3], the inhibition at 25 µM is 81%. On recombinant rat PAI-1 (setting [4]), the inhibition at 3 µM was above 99% and the inhibition at 10 µM is above 99%.
